Data: ChEMBL document CHEMBL2439971, “Design, synthesis and antiproliferative evaluation of fluorenone analogs with DNA topoisomerase I inhibitory properties” (Bioorg Med Chem, 2013)
pIC50: −log10 of the molar value. Calls of active or inactive are those of the source. No cut-off for these calls is given here.

Assays:
Homo sapiens = species: Homo sapiens; assay: Inhibition of telomerase (unknown origin) at 10 uM TRAP assay
CAKI-1 = assay: Cytotoxicity against human CAKI-1 cells at 10 uM after 48 hrs by sulforhodamine B assay relative to control; format: functional
MDA-MB-468 = assay: Cytotoxicity against human MDA-MB-468 cells at 10 uM after 48 hrs by sulforhodamine B assay relative to control; format: functional
T47D = assay: Cytotoxicity against human T47D cells at 10 uM after 48 hrs by sulforhodamine B assay relative to control; format: functional
BT-549 = assay: Cytotoxicity against human BT549 cells at 10 uM after 48 hrs by sulforhodamine B assay relative to control; format: functional
[1] = Cytotoxicity against human Hs 578T cells at 10 uM after 48 hrs by sulforhodamine B assay relative to control; format: functional
MDA-MB-231 = assay: Cytotoxicity against human MDA-MB-231 cells at 10 uM after 48 hrs by sulforhodamine B assay relative to control; format: functional
MCF7 = assay: Cytotoxicity against human MCF7 cells at 10 uM after 48 hrs by sulforhodamine B assay relative to control; format: functional
DU-145 = assay: Cytotoxicity against human DU145 cells at 10 uM after 48 hrs by sulforhodamine B assay relative to control; format: functional
PC-3 [2] = assay: Cytotoxicity against human PC3 cells at 10 uM after 48 hrs by sulforhodamine B assay relative to control; format: functional
UO-31 = assay: Cytotoxicity against human UO31 cells at 10 uM after 48 hrs by sulforhodamine B assay relative to control; format: functional
TK-10 = assay: Cytotoxicity against human TK10 cells at 10 uM after 48 hrs by sulforhodamine B assay relative to control; format: functional
SN12C = assay: Cytotoxicity against human SN12C cells at 10 uM after 48 hrs by sulforhodamine B assay relative to control; format: functional
RXF 393 = assay: Cytotoxicity against human RXF393 cells at 10 uM after 48 hrs by sulforhodamine B assay relative to control; format: functional
ACHN = assay: Cytotoxicity against human ACHN cells at 10 uM after 48 hrs by sulforhodamine B assay relative to control; format: functional
786-0 = assay: Cytotoxicity against human 786-0 cells at 10 uM after 48 hrs by sulforhodamine B assay relative to control; format: functional
NCI/ADR-RES = assay: Cytotoxicity against human NCI/ADR-RES cells at 10 uM after 48 hrs by sulforhodamine B assay relative to control; format: functional
OVCAR-8 = assay: Cytotoxicity against human OVCAR8 cells at 10 uM after 48 hrs by sulforhodamine B assay relative to control; format: functional
OVCAR-5 = assay: Cytotoxicity against human OVCAR5 cells at 10 uM after 48 hrs by sulforhodamine B assay relative to control; format: functional
OVCAR-4 = assay: Cytotoxicity against human OVCAR4 cells at 10 uM after 48 hrs by sulforhodamine B assay relative to control; format: functional
OVCAR-3 = assay: Cytotoxicity against human OVCAR3 cells at 10 uM after 48 hrs by sulforhodamine B assay relative to control; format: functional
IGROV-1 = assay: Cytotoxicity against human IGROV1 cells at 10 uM after 48 hrs by sulforhodamine B assay relative to control; format: functional
UACC-62 = assay: Cytotoxicity against human UACC62 cells at 10 uM after 48 hrs by sulforhodamine B assay relative to control; format: functional
UACC-257 = assay: Cytotoxicity against human UACC257 cells at 10 uM after 48 hrs by sulforhodamine B assay relative to control; format: functional
SK-MEL-5 = assay: Cytotoxicity against human SK-MEL-5 cells at 10 uM after 48 hrs by sulforhodamine B assay relative to control; format: functional
SK-MEL-28 = assay: Cytotoxicity against human SK-MEL-28 cells at 10 uM after 48 hrs by sulforhodamine B assay relative to control; format: functional
SK-MEL-2 = assay: Cytotoxicity against human SK-MEL-2 cells at 10 uM after 48 hrs by sulforhodamine B assay relative to control; format: functional
MDA-MB-435 = assay: Cytotoxicity against human MDA-MB-435 cells at 10 uM after 48 hrs by sulforhodamine B assay relative to control; format: functional
M14 = assay: Cytotoxicity against human M14 cells at 10 uM after 48 hrs by sulforhodamine B assay relative to control; format: functional
Malme-3M = assay: Cytotoxicity against human MALME-3M cells at 10 uM after 48 hrs by sulforhodamine B assay relative to control; format: functional
LOX IMVI = assay: Cytotoxicity against human LOXIMVI cells at 10 uM after 48 hrs by sulforhodamine B assay relative to control; format: functional
SNB-75 = assay: Cytotoxicity against human SNB75 cells at 10 uM after 48 hrs by sulforhodamine B assay relative to control; format: functional
U-251 = assay: Cytotoxicity against human U251 cells at 10 uM after 48 hrs by sulforhodamine B assay relative to control; format: functional
SF-539 = assay: Cytotoxicity against human SF539 cells at 10 uM after 48 hrs by sulforhodamine B assay relative to control; format: functional
SNB-19 = assay: Cytotoxicity against human SNB19 cells at 10 uM after 48 hrs by sulforhodamine B assay relative to control; format: functional
SF-295 = assay: Cytotoxicity against human SF295 cells at 10 uM after 48 hrs by sulforhodamine B assay relative to control; format: functional
SF-268 = assay: Cytotoxicity against human SF268 cells at 10 uM after 48 hrs by sulforhodamine B assay relative to control; format: functional
SW-620 = assay: Cytotoxicity against human SW620 cells at 10 uM after 48 hrs by sulforhodamine B assay relative to control; format: functional
KM12 = assay: Cytotoxicity against human KM12 cells at 10 uM after 48 hrs by sulforhodamine B assay relative to control; format: functional
HT-29 = assay: Cytotoxicity against human HT-29 cells at 10 uM after 48 hrs by sulforhodamine B assay relative to control; format: functional
HCT-15 = assay: Cytotoxicity against human HCT15 cells at 10 uM after 48 hrs by sulforhodamine B assay relative to control; format: functional
HCT-116 = assay: Cytotoxicity against human HCT116 cells at 10 uM after 48 hrs by sulforhodamine B assay relative to control; format: functional
HCC 2998 = assay: Cytotoxicity against human HCC2998 cells at 10 uM after 48 hrs by sulforhodamine B assay relative to control; format: functional
COLO 205 = assay: Cytotoxicity against human COLO205 cells at 10 uM after 48 hrs by sulforhodamine B assay relative to control; format: functional
NCI-H522 = assay: Cytotoxicity against human NCI-H522 cells at 10 uM after 48 hrs by sulforhodamine B assay relative to control; format: functional
NCI-H460 = assay: Cytotoxicity against human NCI-H460 cells at 10 uM after 48 hrs by sulforhodamine B assay relative to control; format: functional
NCI-H322M = assay: Cytotoxicity against human NCI-H322M cells at 10 uM after 48 hrs by sulforhodamine B assay relative to control; format: functional
NCI-H23 = assay: Cytotoxicity against human NCI-H23 cells at 10 uM after 48 hrs by sulforhodamine B assay relative to control; format: functional
NCI-H226 = assay: Cytotoxicity against human NCI-H226 cells at 10 uM after 48 hrs by sulforhodamine B assay relative to control; format: functional
HOP-62 = assay: Cytotoxicity against human HOP62 cells at 10 uM after 48 hrs by sulforhodamine B assay relative to control; format: functional
[3] = Cytotoxicity against human EKVX cells at 10 uM after 48 hrs by sulforhodamine B assay relative to control; format: functional
A549 = assay: Cytotoxicity against human A549 cells at 10 uM after 48 hrs by sulforhodamine B assay relative to control; format: functional
SR = assay: Cytotoxicity against human SR cells at 10 uM after 48 hrs by sulforhodamine B assay relative to control; format: functional
RPMI-8226 = assay: Cytotoxicity against human RPMI8226 cells at 10 uM after 48 hrs by sulforhodamine B assay relative to control; format: functional
MOLT-4 = assay: Cytotoxicity against human MOLT4 cells at 10 uM after 48 hrs by sulforhodamine B assay relative to control; format: functional
K562 = assay: Cytotoxicity against human K562 cells at 10 uM after 48 hrs by sulforhodamine B assay relative to control; format: functional
HL-60(TB) = assay: Cytotoxicity against human HL-60(TB) cells at 10 uM after 48 hrs by sulforhodamine B assay relative to control; format: functional
CCRF-CEM = assay: Cytotoxicity against human CCRF-CEM cells at 10 uM after 48 hrs by sulforhodamine B assay relative to control; format: functional
PC-3 [4] = assay: Cytotoxicity against human PC3 cells after 48 hrs by sulforhodamine B assay; format: functional, cell-based; conditions: PC-3, 48 h

O=C(CCN1CCOCC1)Nc1ccc2c(c1)C(=O)c1cc(NC(=O)CCN3CCOCC3)ccc1-2
inhibition (Homo sapiens): inactive
Activity (CAKI-1): 96.99%
Activity (MDA-MB-468): 101.73%
Activity (T47D): 101.34%
Activity (BT-549): 113.53%
Activity [1]: 101.67%
Activity (MDA-MB-231): 122.26%
Activity (MCF7): 88.76%
Activity (DU-145): 117.55%
Activity (PC-3 [2]): 113.85%
Activity (UO-31): 86.58%
Activity (TK-10): 112.26%
Activity (SN12C): 104.8%
Activity (RXF 393): 99.09%
Activity (ACHN): 101.15%
Activity (786-0): 110.24%
Activity (NCI/ADR-RES): 102.84%
Activity (OVCAR-8): 103.76%
Activity (OVCAR-5): 103.99%
Activity (OVCAR-4): 105.22%
Activity (OVCAR-3): 121.23%
Activity (IGROV-1): 95.95%
Activity (UACC-62): 122.9%
Activity (UACC-257): 113.13%
Activity (SK-MEL-5): 102.76%
Activity (SK-MEL-28): 104.41%
Activity (SK-MEL-2): 131.96%
Activity (MDA-MB-435): 104.2%
Activity (M14): 127.51%
Activity (Malme-3M): 118.44%
Activity (LOX IMVI): 89.4%
Activity (SNB-75): 82.97%
Activity (U-251): 94.41%
Activity (SF-539): 107.54%
Activity (SNB-19): 110.22%
Activity (SF-295): 105.19%
Activity (SF-268): 115.57%
Activity (SW-620): 106.16%
Activity (KM12): 105.8%
Activity (HT-29): 111.58%
Activity (HCT-15): 108.42%
Activity (HCT-116): 114.57%
Activity (HCC 2998): 100.06%
Activity (COLO 205): 105.48%
Activity (NCI-H522): 102.66%
Activity (NCI-H460): 105.97%
Activity (NCI-H322M): 109.97%
Activity (NCI-H23): 94.62%
Activity (NCI-H226): 109.63%
Activity (HOP-62): 115.73%
Activity [3]: 99.88%
Activity (A549): 98.13%
Activity (SR): 98.5%
Activity (RPMI-8226): 99.87%
Activity (MOLT-4): 94.98%
Activity (K562): 99.03%
Activity (HL-60(TB)): 112.24%
Activity (CCRF-CEM): 92.01%
pIC50 (PC-3 [4]): < 4.52

CCCSCC(=O)Nc1ccc2c(c1)C(=O)c1cc(NC(=O)CSCCC)ccc1-2
inhibition (Homo sapiens): inactive
Activity (CAKI-1): 116.5%
Activity (MDA-MB-468): 98.19%
Activity (T47D): 94.56%
Activity (BT-549): 79.13%
Activity [1]: 92.42%
Activity (MDA-MB-231): 110.09%
Activity (MCF7): 92.24%
Activity (DU-145): 111.27%
Activity (PC-3 [2]): 94.41%
Activity (UO-31): 104.91%
Activity (TK-10): 109.43%
Activity (SN12C): 102.58%
Activity (RXF 393): 73.43%
Activity (ACHN): 110.7%
Activity (786-0): 88.03%
Activity (NCI/ADR-RES): 100.59%
Activity (OVCAR-8): 122.23%
Activity (OVCAR-5): 106.86%
Activity (OVCAR-4): 106.85%
Activity (OVCAR-3): 108.65%
Activity (IGROV-1): 103.61%
Activity (UACC-62): 107.45%
Activity (UACC-257): 137.38%
Activity (SK-MEL-5): 91.99%
Activity (SK-MEL-28): 90.58%
Activity (SK-MEL-2): 106.67%
Activity (MDA-MB-435): 102.08%
Activity (M14): 99.86%
Activity (Malme-3M): 107%
Activity (LOX IMVI): 90.88%
Activity (SNB-75): 88.25%
Activity (U-251): 82.28%
Activity (SF-539): 77.18%
Activity (SNB-19): 102.55%
Activity (SF-295): 69.6%
Activity (SF-268): 121.78%
Activity (SW-620): 117.49%
Activity (KM12): 90.34%
Activity (HT-29): 93.31%
Activity (HCT-15): 86.05%
Activity (HCT-116): 97.47%
Activity (HCC 2998): 101.22%
Activity (COLO 205): 111.93%
Activity (NCI-H522): 80.15%
Activity (NCI-H460): 110.9%
Activity (NCI-H322M): 84.33%
Activity (NCI-H23): 98.99%
Activity (NCI-H226): 110.7%
Activity (HOP-62): 106.36%
Activity [3]: 100.02%
Activity (A549): 99.19%
Activity (SR): 76.63%
Activity (RPMI-8226): 45.12%
Activity (MOLT-4): 82.96%
Activity (K562): 84.45%
Activity (HL-60(TB)): 99.03%
Activity (CCRF-CEM): 90.86%
pIC50 (PC-3 [4]): < 4.52
